Patent US20260022322A1, “MULTIMODAL BIOPHYSICAL CHARACTERIZATION APPARATUS, SYSTEM, METHOD, AND USE” (Yigong Ruixin (Xiamen) Technology Co., Ltd, priority 2023, published 2026)

Legend:
tumor cells = experiment: Immune-tumor cell interaction on cell mechanics chip with drug intervention; type: cell-based
Text: S1. Prepare the chip: Select a cell mechanics chip with a micropillar structure. The top of the micropillars is coated with a suitable extracellular matrix (ECM) to promote the attachment and growth of tumor cells and immune cells. Use an anti-adhesion treatment on the side surfaces of the micropillars and in the space between them.
S2. Seed tumor cells and immune cells: Seed tumor cells and immune cells (such as NK cells or T cells) separately on the mechanics chip, allowing them to interact.
S3. Monitor the mechanical properties of the tumor cells: Use the light reflection signal and micropillar deflection to monitor in real-time the changes in the cell mechanical force and hardness of the tumor cells during their interaction with the immune cells.
S4. […] Softer tumor cells (with smaller cell mechanical force) are difficult for immune cells to recognize and kill.
S5. Drug intervention: Add the drug JAS, which makes tumor cells harder, to the culture medium, and observe the changes in the cell mechanical force and hardness of the tumor cells.
S6. Evaluate the effect of drug intervention: Under the action of the drug, the tumor cells become harder, and the cell mechanical force increases (FIG. 32). It was observed that the killing effect of immune cells on tumor cells was enhanced accordingly.

[1] = test system: macrophage cell line THP-1; experiment: Nuclear hardness of activated THP-1 by magnetic material method and fluorescence method; type: cell-based; settings: THP-1 activated to M1-type macrophages
Text: S1: Provide a chip whose surface is covered with PDMS nano-magnetic micropillars. The micropillars contain a fluorescent substance and have an extracellular matrix coating.
S2: Culture the macrophage cell line THP-1 on this chip. Contact between the THP-1 cells and the chip is made by controlling the height of the culture medium.
S3: Add lipopolysaccharide (LPS) to the culture medium to activate the THP-1 cells, causing them to transform into M1-type macrophages.
S4: After several days of cultivation, use the magnetic material method to turn on the magnetic field and measure the reflected light attenuation. After turning off the magnetic field, measure the light reflection signal attenuation value and frequency of each micropillar, and sequentially calculate the softness/hardness of the nucleus at each position.
S5: Use paraformaldehyde to fix the cells on the chip, and use DAPI to stain the nuclei.
S6: Using the fluorescence method, use a confocal microscope to perform a Z-axis tomographic scan from the top to the bottom of the micropillars, and analyze the depth of the DAPI signal of the nucleus between the micropillars. […]
The results measured by the magnetic material method and the fluorescence method are the same (FIG. 33), proving that the accuracy of measuring nuclear hardness by the magnetic material method has been cross-validated by the fluorescence method.

[2] = drug added to culture medium, micropillar chip, light reflection signal (FIG. 32)

Compound | cell mechanical force of the tumor cells (tumor cells; [2]) | hardness of the tumor cells (tumor cells; [2]) | killing effect of immune cells on tumor cells (tumor cells; tumor cells co-seeded with immune cells (such as NK cells or T cells), under the action of the drug) | sagging depth of the nucleus between the micropillars ([1]; DAPI, confocal Z-axis scan (fluorescence method)) | nuclear hardness ([1]; magnetic material method and fluorescence method gave the same result (FIG. 33))
C/C1=C\[C@H](C)C[C@H](C)OC(=O)C[C@H](c2ccc(O)cc2)NC(=O)[C@@H](Cc2c(Br)[nH]c3ccccc23)N(C)C(=O)[C@H](C)NC(=O)[C@@H](C)C1 [JAS] | increases | become harder | enhanced |  | 
lipopolysaccharide [LPS] |  |  |  | becomes deeper | softer
